Reference: patent publication US7618663B2, “Anti-arthritic herbal composition and method thereof” (priority 2004, dated 2009)
Marks after values point to notes of the source that are not given here.

What was measured:
[1] = tested on: formalin arthritis and granuloma pouch; details: cited from earlier work
stomach = details: known side effect of the drug; cited from earlier work
[2] = tested on: formaldehyde-induced arthritis; assay: formaldehyde-induced acute arthritis, paw edema; format: in vivo, rat; details: dose 30 mg/kg; given 24 hours before formalin and continued for 13 days; mean ± S.E.M., six rats
Method: Formaldehyde-induced arthritis was produced in rats by injecting 0.1 ml of 2% formaldehyde in the hind paw under the planter aponeurosis. Paw volume was measured daily for 13 days. The test composition was given 24 hours before formalin injection and continued for 13 days.

SMILES | mortality rate ([1]; albino rats) | gastric side effects-ulcer and bleeding ([1]; rats) | ulcer in the stomach (stomach) | % Edema (Swelling) [2]
C[C@H]1C[C@H]2[C@@H]3CCC4=CC(=O)C=C[C@]4(C)[C@@]3(F)[C@@H](O)C[C@]2(C)[C@@]1(O)C(=O)CO [betamethasone] | 12 out of 29 | 10 out of 12 |  | 
CC(C)Cc1ccc(C(C)C(=O)O)cc1 (stereo not shown) [Ibuprofen] |  |  | causes ulcer in the stomach | 27.80 ± 4.2^b %
